Test results reported in patent publication US7429482B2, “Screening tools for discovery of novel anabolic agents” (United States of America as represented by the Department …, priority 2005, dated 2008).

Columns and labels:
MAFbx = MAFbx expression in gastrocnemius of rats infused with dexamethasone with or without testosterone (qPCR); type: in vivo; settings: rat, dexamethasone plus testosterone 28 mg/kg/day, 7 days
Protocol: Muscle was flash frozen on dry ice after excision. Total RNA was isolated by phenol:chloroform extraction (Chomczynski and Sacchi, Anal Biochem 162: 156-159, 1987) and further enriched using RNAeasy minicolumns (Qiagen) with digestion on the column with RNAse-free DNAse (Qiagen).
RNA was quantified by absorbance at 260 nm. One microgram of total RNA was used to prepare cDNA libraries using the High Capacity cDNA Archive Kit (Applied Biosystems, Foster City, Calif.). Libraries were diluted 25-fold with water. Real time PCR was performed using Taqman 2×PCR buffer (Applied Biosystems) and an Applied Biosystems 7500 thermocycler. Data were normalized relative to that for 18S RNA. Relative changes in expression were determined using the 2^−ΔΔCt method. Taqman Assay on Demand probes (Applied Biosystems) were used for all assays except rat 18S RNA, which was quantified using the following […]: Forward: […] (SEQ ID NO:15); Reverse: […] (SEQ ID NO:16); Probe: FAM-[…] (SEQ ID NO:17; Labeled with FAM and non-fluoresent quencher, NFQ, at 5′ and 3′ ends, repsectively).
Male Wistar rats weighing 250 gm were anesthetized with ketamine/xylazine followed by implantation Alzet miniosmotic pumps administering vehicle (propylene glycocol), dexamethasone (0.7 mg/kg/day), or dexamethasone plus testosterone (28 mg/kg/day). […]

IGF-1 receptor = assay: Chronic denervation: IGF receptor mRNA in gastrocnemius (qPCR); type: in vivo, rat; settings: for IGF-receptor expression: denervated muscle
Protocol: (§1) Male Wistar rats weighing 200-250 gm (Taconic Farms, Germantown, N.Y.) were provided food and water ad libitum and were housed in a temperature and humidity controlled environment providing a 12:12 hour day-night cycle. For surgical procedures, animals were anesthetized with ketamine/xylazine. The left sciatic nerve was exposed by blunt dissection, and a 1 to 2 mm piece of this nerve was excised just below the level of the femoral head. A sham surgery was performed on the right hind limb in which the sciatic nerve was exposed but was not transected. Twenty eight days later, animals were anesthetized, and Alzet pumps were implanted subcutaneously on the back. […] Testosterone levels after replacement were approximately 15 nM, a high-normal range for rats of this age. Animals were sacrificed 3, 7 or 28 days after implantation of the miniosmotic pumps by inhalation of carbon dioxide. Gastrocnemius muscles were excised and weighed, then flash frozen on dry ice and stored at −80° C.
(§2) Total RNA was extracted from skeletal muscle (20 mg) by homogenization in guanidine thiocyanate using a Polytron followed by extraction of total RNA with phenol-chloroform as described by (Chomczynski and Sacchi, Anal Biochem 162: 156-159, 1987). Total RNA was further enriched using RNAeasy minicolumns (Qiagen, Valencia, Calif.). This procedure included digestion of contaminating DNA on the column with RNAse-free DNAse (Qiagen). Total RNA was eluted and quantified by absorbance at 260 nm. One μg of total RNA was used to prepare a cDNA library by reverse transcription (High Capacity cDNA Archive Kit, Applied Biosystems). Libraries were diluted 25-fold with water. Real time PCR was performed Taqman 2×PCR buffer (Applied Biosystems) using an Applied Biosystems 7500 thermocycler. Levels of gene expression in the denervated muscle were expressed as fold induction relative to muscle from the sham-denervated leg of animals administered vehicle. […] Fold-induction was determined using the 2^−ΔΔCt method, using expression of 18S RNA as the normalization control. […]

IGFBP-5 = assay: Chronic denervation: IGFBP-5 mRNA in gastrocnemius (qPCR); type: in vivo, rat
Protocol: as §1, §2

IGF-1 = assay: Acute denervation: IGF-1 mRNA in EDL and soleus (qPCR); type: in vivo, rat; settings: nandrolone 1.5 mg/kg/wk 14 days
Protocol: Male Wistar rats weighing 250 gm (Taconic Farms, Germantown, N.Y.) were provided food and water ad libitum and were housed in a temperature and humidity controlled environment providing a 12:12 hour day-night cycle. For surgical procedures, animals were anesthetized with ketamine/xylazine. The left sciatic nerve was exposed by blunt dissection, and a 1 to 2 mm piece of this nerve was excised just below the level of the femoral head. A sham surgery was performed on the right hind limb in which the sciatic nerve was exposed but was not transected. Model 2002 Alzet pumps were implanted subcutaneously on the back. […] A pellet containing 15 mg of testosterone (Innovative Research of America, Sarasota, Fla.) administered as a continuous infusion (5 mg/wk), or a pellet containing placebo, was inserted into a subcutaneous pouch. […] Because testosterone is known to have anabolic actions (Ferrando et al., Am J Physiol Endocrinol Metab 282: E601-E607, 2002; Mauras et al., J Clin Endocrinol Metab 83: 1886-1892, 1998; Urban et al., Am J Physiol 269: E820-E826, 1995), reductions in levels of this hormone could affect muscle mass and confound interpretation of the results. Animals were euthanized 14 days later by inhalation of carbon dioxide. […]
Total RNA was extracted from skeletal muscle (20 mg) by homogenization in guanidine thiocyanate using a Polytron followed by extraction using phenol-chloroform (Chomczynski and Sacchi, Anal Biochem 162: 156-159, 1987). […] Total RNA was then eluted and quantified by absorbance at 260 nm. […] Levels of gene expression in the denervated muscle were expressed as fold induction relative to muscle from the sham-denervated leg of animals administered vehicle. […] Fold-induction was determined using the 2^−ΔΔCt method, using expression of 18S RNA as the normalization control. […]

C[C@]12CC[C@H]3[C@@H](CCC4=CC(=O)CC[C@@]43C)[C@@H]1CC[C@@H]2O [testosterone]
effects of dexamethasone on MAFbx expression in gastrocnemius (MAFbx): completely blocked

C[C@]12CC[C@H]3[C@@H](CCC4=CC(=O)CC[C@@H]43)[C@@H]1CC[C@@H]2O [nandrolone]
IGF-receptor expression (IGF-1 receptor; after 28 days (p<0.10)): trend toward increased expression
IGF-receptor expression (IGF-1 receptor; early time points): did not alter
IGF-1 receptor expression (IGF-1 receptor; sham-denervated muscle): not altered
IGFBP-5 expression (IGFBP-5; denervated muscle, 56-days): tended to reduce
IGFBP-5 expression (IGFBP-5; denervated muscle, any time tested): did not significantly alter
IGFBP-5 expression (IGFBP-5; sham-denervated muscle): did not appreciably alter
IGF-1 expression (IGF-1; denervated EDL): significantly reduced
IGF-1 expression (IGF-1; denervated or sham-denervated soleus): did not significantly affect
IGF-1 expression (IGF-1; sham-denervated EDL): significantly reduced
